Test results from patent publication US10370343B2, “[6,6] Fused bicyclic HDAC8 inhibitors” (FORMA Therapeutics, Inc., priority 2015, dated 2019).

Assays:
[1] = target: T1, Recombinant N-terminal GST tag full-length human HDAC8 (Homo sapiens, UniProt Q9BY41); experiment: HDAC8 probe binding assay, time resolved fluorescence (TRF) format; conditions: compounds grouped by IC50 range (Table 2)
T1 construct: Recombinant N-terminal GST tag full-length human HDAC8; purchased SignalChem H90-30G-1000; host or cells: baculovirus in Sf9 insect cells
T1 sequence (Q9BY41 1-377): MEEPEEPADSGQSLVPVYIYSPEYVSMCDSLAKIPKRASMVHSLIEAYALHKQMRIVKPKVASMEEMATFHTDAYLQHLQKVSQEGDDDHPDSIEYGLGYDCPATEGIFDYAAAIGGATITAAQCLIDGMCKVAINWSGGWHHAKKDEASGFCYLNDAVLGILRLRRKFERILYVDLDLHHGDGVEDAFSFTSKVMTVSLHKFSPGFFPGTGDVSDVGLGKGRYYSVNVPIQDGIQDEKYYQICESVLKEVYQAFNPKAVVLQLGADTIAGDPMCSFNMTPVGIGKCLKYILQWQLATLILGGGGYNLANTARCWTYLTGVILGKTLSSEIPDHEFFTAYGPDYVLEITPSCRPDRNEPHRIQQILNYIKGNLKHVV
Method in brief: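 Probe-binding TRF assay using full-length N-GST human HDAC8 expressed in baculovirus-infected Sf9 cells, incubated 16 h at room temperature and read at 340 nm excitation, 485/535 nm emission. Percent inhibition was normalised to no-enzyme and DMSO controls. IC50 was obtained by 4-parameter logistic fit.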

[2] = target: T2, Full length human recombinant HDAC8 protein (Homo sapiens, UniProt Q9BY41); experiment: In vitro histone deacetylase assay: enzymatic HDAC8 electrophoretic mobility shift assay; format: biochemical; conditions: electrophoretic mobility shift assay; enzyme 1 nM; 2 μM fluorescently labeled peptide substrate RHKK(Ac)-NH2; 25° C.; 12 concentrations; read-out: HDAC8 IC50
T2 construct: Full length human recombinant HDAC8 protein was expressed in baculoviral system; made in house
T2 sequence (Q9BY41 1-377): T1 sequence (Q9BY41 1-377)

Row | IC50 [1] [nM] | IC50 [2] [nM] | SMILES
1 | ≤ 25 | < 25 | O=C(NO)c1ccc2c(c1)N(Cc1ccc(-n3cccn3)cc1)C(=O)CO2 [Compound I-224, 4-(4-(1H-pyrazol-1-yl)benzyl)-N-hydroxy-3-oxo-3,4-dihydro-2H-benzo[b][1,4]oxazine-6-carboxamide]
2 | ≤ 25 | < 25 | Cc1ccc2nc(CN3C(=O)COc4ccc(C(=O)NO)cc43)oc2c1 [Compound I-213, N-hydroxy-4-((6-methylbenzo[d]oxazol-2-yl)methyl)-3-oxo-3,4-dihydro-2H-benzo[b][1,4]oxazine-6-carboxamide]
3 | 25 to 100 | 25 to 100 | CC(c1c(F)cccc1F)N1C(=O)COc2ccc(C(=O)NO)cc21 (centres unmarked) [Compound I-96, 4-(1-(2,6-difluorophenyl)ethyl)-N-hydroxy-3-oxo-3,4-dihydro-2H-benzo[b][1,4]oxazine-6-carboxamide]
4 | ≤ 25 | < 25 | COc1cc(F)c(CN2C(=O)COc3ccc(C(=O)NO)cc32)c(F)c1 [Compound I-248, 4-(2,6-difluoro-4-methoxybenzyl)-N-hydroxy-3-oxo-3,4-dihydro-2H-benzo[b][1,4]oxazine-6-carboxamide]
5 | ≤ 25 | < 25 | O=C(NO)c1ccc2c(c1)N(Cc1cccc(Cl)c1Cl)C(=O)CO2 [Compound I-254, 4-(2,3-dichlorobenzyl)-N-hydroxy-3-oxo-3,4-dihydro-2H-benzo[b][1,4]oxazine-6-carboxamide]
6 | ≤ 25 | < 25 | CS(=O)(=O)c1ccc(CN2CCS(=O)(=O)c3ccc(C(=O)NO)cc32)cc1 [Compound I-82, N-hydroxy-4-(4-(methylsulfonyl)benzyl)-3,4-dihydro-2H-benzo[b][1,4]thiazine-6-carboxamide-1,1-dioxide]
7 | ≤ 25 | < 25 | O=C(NO)c1ccc2c(c1)N(Cc1nc3cc(F)ccc3o1)C(=O)CO2 [Compound I-217, 4-((5-fluorobenzo[d]oxazol-2-yl)methyl)-N-hydroxy-3-oxo-3,4-dihydro-2H-benzo[b][1,4]oxazine-6-carboxamide]
8 | 25 to 100 | < 25 | COc1ccc(CN2C(=O)COc3ccc(C(=O)NO)cc32)cc1C [Compound I-244, N-hydroxy-4-(4-methoxy-3-methylbenzyl)-3-oxo-3,4-dihydro-2H-benzo[b][1,4]oxazine-6-carboxamide]
9 | 25 to 100 | 25 to 100 | O=C(NO)c1ccc2c(c1)N(Cc1c(F)cccc1Cl)C(=O)CO2 [Compound I-273, 4-(2-chloro-6-fluorobenzyl)-N-hydroxy-3-oxo-3,4-dihydro-2H-benzo[b][1,4]oxazine-6-carboxamide]
10 | ≤ 25 | < 25 | O=C(NO)c1ccc2c(c1)N(Cc1nc3cc(Cl)ccc3o1)C(=O)CO2 [Compound I-272, 4-((5-chlorobenzo[d]oxazol-2-yl)methyl)-N-hydroxy-3-oxo-3,4-dihydro-2H-benzo[b][1,4]oxazine-6-carboxamide]
11 | ≤ 25 | < 25 | Cc1cccc(CN2C(=O)COc3ccc(C(=O)NO)cc32)c1F [Compound I-74, 4-(2-fluoro-3-methylbenzyl)-N-hydroxy-3-oxo-3,4-dihydro-2H-benzo[b][1,4]oxazine-6-carboxamide]
12 | ≤ 25 | < 25 | O=C(NO)c1ccc2c(c1)N(Cc1ccc(F)cc1Cl)C(=O)CO2 [Compound I-270, 4-(2-chloro-4-fluorobenzyl)-N-hydroxy-3-oxo-3,4-dihydro-2H-benzo[b][1,4]oxazine-6-carboxamide]
13 | 25 to 100 | 25 to 100 | O=C(NO)c1ccc2c(c1)N(Cc1csc(-c3ccccc3)n1)C(=O)CO2 [Compound I-271, N-hydroxy-3-oxo-4-((2-phenylthiazol-4-yl)methyl)-3,4-dihydro-2H-benzo[b][1,4]oxazine-6-carboxamide]
14 | ≤ 25 | < 25 | COc1ccc(CN2C(=O)COc3ccc(C(=O)NO)cc32)cc1F [Compound I-245, 4-(3-fluoro-4-methoxybenzyl)-N-hydroxy-3-oxo-3,4-dihydro-2H-benzo[b][1,4]oxazine-6-carboxamide]
15 | ≤ 25 | < 25 | COc1ccc(CN2C(=O)C(C)(C)Oc3ccc(C(=O)NO)cc32)c(F)c1 [Compound I-160, 4-(2-fluoro-4-methoxybenzyl)-N-hydroxy-2,2-dimethyl-3-oxo-3,4-dihydro-2H-benzo[b][1,4]oxazine-6-carboxamide]
16 | ≤ 25 | < 25 | O=C(NO)c1ccc2c(c1)N(Cc1ccn(-c3ccccc3)n1)C(=O)CO2 [Compound I-222, N-hydroxy-3-oxo-4-((1-phenyl-1H-pyrazol-3-yl)methyl)-3,4-dihydro-2H-benzo[b][1,4]oxazine-6-carboxamide]
17 | ≤ 25 | < 25 | CC(c1ccc(S(C)(=O)=O)cc1)N1C(=O)COc2ccc(C(=O)NO)cc21 (centres unmarked) [Compound I-94, N-hydroxy-4-(1-(4-(methylsulfonyl)phenyl)ethyl)-3-oxo-3,4-dihydro-2H-benzo[b][1,4]oxazine-6-carboxamide]

Row | IC50 [1] [nM] | IC50 [2] [nM] | SMILES
18 | – | 25 to 100 | CN(C)S(=O)(=O)c1ccc(OCCN2C(=O)COc3ccc(C(=O)NO)cc32)cc1 [Compound I-56, 4-(2-(4-(N,N-dimethylsulfamoyl)phenoxy)ethyl)-N-hydroxy-3-oxo-3,4-dihydro-2H-benzo[b][1,4]oxazine-6-carboxamide]
19 | – | 100 to 1000 | COc1cc(CN2CCOc3ccc(C(=O)NO)cc32)ccc1S(C)(=O)=O [Compound I-138, N-hydroxy-4-(3-methoxy-4-(methylsulfonyl)benzyl)-3,4-dihydro-2H-benzo[b][1,4]oxazine-6-carboxamide]
20 | – | 100 to 1000 | O=C(NO)c1ccc2c(c1)N(Cc1cn3ccsc3n1)CCO2 [Compound I-21, N-hydroxy-4-(imidazo[2,1-b]thiazol-6-ylmethyl)-3,4-dihydro-2H-benzo[b][1,4]oxazine-6-carboxamide]
21 | – | 100 to 1000 | COc1ccc(CN2CCS(=O)(=O)c3cc(C(=O)NO)ccc32)cc1 [Compound I-80, N-hydroxy-4-(4-methoxybenzyl)-3,4-dihydro-2H-benzo[b][1,4]thiazine-7-carboxamide-1,1-dioxide]
22 | – | < 25 | O=C(NO)c1ccc2c(c1)N(Cc1cc(C(F)(F)F)ccc1F)C(=O)CO2 [Compound I-73, 4-(2-fluoro-5-(trifluoromethyl)benzyl)-N-hydroxy-3-oxo-3,4-dihydro-2H-benzo[b][1,4]oxazine-6-carboxamide]
23 | – | 100 to 1000 | CC(C)CN1C(=O)COc2ccc(C(=O)NO)cc21 [Compound I-57, N-hydroxy-4-isobutyl-3-oxo-3,4-dihydro-2H-benzo[b][1,4]oxazine-6-carboxamide]
24 | – | 100 to 1000 | O=C(NO)c1ccc2c(c1)N(CC1CCS(=O)(=O)CC1)C(=O)CO2 [Compound I-49, 4-((1,1-dioxidotetrahydro-2H-thiopyran-4-yl)methyl)-N-hydroxy-3-oxo-3,4-dihydro-2H-benzo[b][1,4]oxazine-6-carboxamide]
25 | – | 100 to 1000 | COc1ccc(CN2CCOc3ccc(C(=O)NO)cc32)cc1 [Compound I-115, N-hydroxy-4-(4-methoxybenzyl)-3,4-dihydro-2H-benzo[b][1,4]oxazine-6-carboxamide]
26 | – | < 25 | Cc1ccc(C(F)(F)F)cc1CN1C(=O)COc2ccc(C(=O)NO)cc21 [Compound I-72, N-hydroxy-4-(2-methyl-5-(trifluoromethyl)benzyl)-3-oxo-3,4-dihydro-2H-benzo[b][1,4]oxazine-6-carboxamide]
27 | – | 25 to 100 | Cc1ccccc1CN1CCOc2ccc(C(=O)NO)cc21 [Compound I-127, N-hydroxy-4-(2-methylbenzyl)-3,4-dihydro-2H-benzo[b][1,4]oxazine-6-carboxamide]
28 | – | 100 to 1000 | C=C(C)CN1CCOc2ccc(C(=O)NO)cc21 [Compound I-22, N-hydroxy-4-(2-methylallyl)-3,4-dihydro-2H-benzo[b][1,4]oxazine-6-carboxamide]
29 | – | 25 to 100 | CS(=O)(=O)c1ccc(CN2CCOc3ccc(C(=O)NO)cc32)cc1 [Compound I-120, N-hydroxy-4-(4-(methylsulfonyl)benzyl)-3,4-dihydro-2H-benzo[b][1,4]oxazine-6-carboxamide]
30 | – | 100 to 1000 | CCCc1nc(C)sc1CN1C(=O)COc2ccc(C(=O)NO)cc21 [Compound I-283, N-hydroxy-4-((2-methyl-4-propylthiazol-5-yl)methyl)-3-oxo-3,4-dihydro-2H-benzo[b][1,4]oxazine-6-carboxamide]
31 | – | 25 to 100 | COc1ccc(CN2C(=O)[C@@H](C)Oc3ccc(C(=O)NO)cc32)cc1 (single isomer, unassigned) [Compound I-162]
32 | – | < 25 | CC(C)(C)c1ccc(CN2C(=O)COc3ccc(C(=O)NO)cc32)cc1 [Compound I-70, 4-(4-(tert-butyl)benzyl)-N-hydroxy-3-oxo-3,4-dihydro-2H-benzo[b][1,4]oxazine-6-carboxamide]
33 | – | 100 to 1000 | O=C(NO)c1ccc2c(c1)N(C1CCCC1)C(=O)CO2 [Compound I-42, 4-cyclopentyl-N-hydroxy-3-oxo-3,4-dihydro-2H-benzo[b][1,4]oxazine-6-carboxamide]
